# Test results published in paper PMC9505123, “Zeta-Carotene Isomerase (Z-ISO) Is Required for Light-Independent Carotenoid Biosynthesis in the Cyanobacterium Synechocystis sp. PCC 6803” (Microorganisms, 2022).
# Target: T1, Synechocystis ZDS (CrtQ) (Synechocystis sp. PCC 6803, UniProt P74306)
# T1 construct: pCDFDuet-1 MCS1, co-expressed with slr1599 (pAH587) or maize Z-ISO (pAH590) in E. coli BL21(DE3) with pAC-ZETAipi
# T1 sequence (P74306 1-489): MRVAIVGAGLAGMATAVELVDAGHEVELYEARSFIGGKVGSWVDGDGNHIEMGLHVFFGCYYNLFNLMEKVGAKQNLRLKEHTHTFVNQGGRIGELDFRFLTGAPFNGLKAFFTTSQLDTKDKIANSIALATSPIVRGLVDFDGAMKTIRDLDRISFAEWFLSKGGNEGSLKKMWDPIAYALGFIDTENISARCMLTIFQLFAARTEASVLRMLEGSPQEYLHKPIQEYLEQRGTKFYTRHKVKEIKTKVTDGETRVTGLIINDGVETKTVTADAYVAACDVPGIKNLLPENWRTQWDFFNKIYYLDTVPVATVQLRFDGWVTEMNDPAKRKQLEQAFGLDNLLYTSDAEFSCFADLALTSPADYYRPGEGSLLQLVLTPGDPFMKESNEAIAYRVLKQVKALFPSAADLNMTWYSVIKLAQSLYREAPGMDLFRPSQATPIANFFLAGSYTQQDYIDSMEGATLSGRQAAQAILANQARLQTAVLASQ
# Assay: RP-HPLC of carotenoids from dark-grown E. coli co-expressing pAC-ZETAipi and Z-ISO
# Assay type: cell-based
# Settings: 37 °C, 24 h, substrate formed in situ by Slr1599 or maize Z-ISO, converted to cis-lycopene isomers
compound,measurement,value
"CC(C)=CCC/C(C)=C/CC\C(C)=C/C=C/C(C)=C/C=C/C=C(C)/C=C/C=C(/C)CC/C=C(\C)CCC=C(C)C [9,9′-di-cis-ζ-carotene]",RP-HPLC of carotenoids from dark-grown E. coli co-expressing pAC-ZETAipi and Z-I,ζ-carotene species were almost completely absent and a variety of new carotenoid species
